Assay results published in patent US20220249343A1, “COSMETIC COMPOSITION INCLUDING 5-BENZYLAMINOSALICYLIC ACID DERIVATIVE, AND TOPICAL USE THEREOF” (GNT PHARMA CO., LTD., priority 2019, published 2022).

Test system: human skin
Assay: Safety assessment for human skin: patch test
Assay type: in vivo
Conditions: human volunteers
Experimental: Safety of Compound 2 was assessed by a patch test of 33 human volunteers. At this time, a patch treated with a composition containing 0.0544 mg/ml of compound 2 was attached to the test site, after 24 hours, the patch was removed and the location was marked. After 1 hour, a degree of reactivity was determined and recorded.
The skin reactivity was calculated by multiplying the average of evaluated values for 33 subjects by 25, while the skin irritation index was determined by dividing the above calculated value by the number of evaluations.
The degree of skin irritation of the test substance was determined with reference to the skin irritation index table (Table 1).

## O=C(O)c1cc(NCCc2ccc(C(F)(F)F)cc2)ccc1O [Compound 2]
  adverse skin reactions during the period of use: no reports of specific adverse skin reactions
  findings on physical examination by a dermatologist: no abnormal findings were observed
